Like-named read-outs stand apart in the source and are kept apart here.
What was measured:
Assay type in all cases: cell-based, human
HIF-1α–NanoLuc = HIF-1α–NanoLuc reporter gene assay (qHTS primary and confirmatory screens)
[1] = test system: hypoxia response element-beta-lactamase (HRE–bla); assay: HRE-bla reporter gene assay in ME-180 cells; details: Table S7, confirmatory screen; for Emax: read-out: HRE–bla confirmatory Efficacy; for IC50: read-out: HRE–bla confirmatory IC50
Experimental: (§1) Cell culture of HRE–bla ME-180 cells (Cat. No. K1644, Life Technologies) and HRE–bla assay were conducted according to a reported protocol [6]. […] The fluorescence signals (460/25 nm and 530/20 nm) of CCF4 and luminescence signals of CellTiter-Glo were acquired on an Envision and a ViewLux plate readers (Perkin Elmer), respectively.

[2] = test system: HIF-1α–NanoLuc HCT116 cells; assay: Viability (Luc): CellTiter-Glo counter screen in HIF-1α–NanoLuc cells; details: for Viability (Luc) confirmatory IC50: Table S7, 1% O2, 18 h; for IC50: 1% O2, 18 h
HRE–bla ME-180 cells = assay: Viability (BLA): CellTiter-Glo counter screen in HRE–bla cells; details: for Viability (BLA) confirmatory IC50: Table S7, 1% O2, 18 h; for IC50 / Emax: Table S7, confirmatory screen; for IC50: 1% O2, 18 h; for Emax: read-out: Viability (BLA) confirmatory Efficacy
Experimental: as §1

[3] = Homo sapiens, Table S2, validation, read-out: Pathway inhibitors (validation) HIF-1α–NanoLuc Activity Efficacy
[4] = Homo sapiens, Table S2, validation, read-out: Pathway inhibitors (validation) HIF-1α–NanoLuc Activity IC50
[5] = Homo sapiens, Table S7, confirmatory screen, read-out: HIF-1α–NanoLuc confirmatory Efficacy
[6] = Homo sapiens, Table S7, primary screen, read-out: HIF-1α–NanoLuc primary Efficacy
[7] = Homo sapiens, Table S7, primary screen, read-out: HIF-1α–NanoLuc primary IC50
[8] = Table S2, validation, read-out: Pathway inhibitors (validation) HIF-1α–NanoLuc Activity IC50
[9] = Homo sapiens, Table S2, primary screen, read-out: Pathway inhibitors (primary screen) HIF-1α–NanoLuc Activity Efficacy
[10] = Homo sapiens, Table S2, primary screen, read-out: Pathway inhibitors (primary screen) HIF-1α–NanoLuc Activity IC50
[11] = Homo sapiens, Table S1, primary screen, hypoxia 1% O2, 18 h, read-out: IC50 (primary screen, HIF-1α–NanoLuc assay)
[12] = Homo sapiens, Table S1, primary screen, read-out: Efficacy (primary screen, HIF-1α–NanoLuc assay)
[13] = Homo sapiens, Table S7, confirmatory screen, read-out: HIF-1α–NanoLuc confirmatory IC50
[14] = Homo sapiens, HCT-116, Table S7, confirmatory screen

Compound	Emax ([1]; Homo sapiens, ME-180) [%]	IC50 ([1]; Homo sapiens, ME-180) [µM]	Viability (Luc) confirmatory IC50 [2]	Viability (BLA) confirmatory IC50 (HRE–bla ME-180 cells)	Emax (HIF-1α–NanoLuc; [5]) [%]	Emax (HIF-1α–NanoLuc; [6]) [%]	IC50 (HIF-1α–NanoLuc; [7]) [µM]	IC50 (HRE–bla ME-180 cells; Homo sapiens, ME-180) [µM]	IC50 (HIF-1α–NanoLuc; [13]) [µM]	also measured
CCOC(=O)C1(c2ccccc2)CCN(CCC(C#N)(c2ccccc2)c2ccccc2)CC1 [Diphenoxylate]	60 ± 4	7.8 ± 0.53	Inactive	Inactive	–	–	–	–	–	Emax (HIF-1α–NanoLuc; Homo sapiens, read-out: HIF-1α–NanoLuc confirmatory Efficacy): 104 ± 12%; IC50 (HIF-1α–NanoLuc; Homo sapiens, read-out: HIF-1α–NanoLuc confirmatory IC50): 13.7 ± 0.93 µM; Emax (HIF-1α–NanoLuc; Homo sapiens, read-out: HIF-1α–NanoLuc primary Efficacy): 82%; IC50 (HIF-1α–NanoLuc; Homo sapiens, read-out: HIF-1α–NanoLuc primary IC50): 16.8 µM
CS(=O)(=O)CCNCc1ccc(-c2ccc3ncnc(Nc4ccc(OCc5cccc(F)c5)c(Cl)c4)c3c2)o1 [Lapatinib]	78 ± 6	11.4 ± 0.75	Inactive	–	50 ± 6	56	33.5	20.4 ± 1.33	–	Emax (HIF-1α–NanoLuc; [3]): 50 ± 6%; IC50 (HIF-1α–NanoLuc; [4]): 20.2 ± 1.31 µM
CC(/C=C/C(=O)NO)=C\[C@@H](C)C(=O)c1ccc(N(C)C)cc1 [Trichostatin A]	–	–	Inactive	–	–	–	–	–	–	Pathway inhibitors (validation) HIF-1α–NanoLuc Activity Efficacy (HIF-1α–NanoLuc; Table S2, validation): 55 ± 4%; IC50 (HIF-1α–NanoLuc; [8]): 0.67 ± 0.26 µM; HIF-1α–NanoLuc confirmatory Efficacy (HIF-1α–NanoLuc; Table S7, confirmatory screen): 55 ± 4%; HRE–bla confirmatory Efficacy [1]: 92 ± 11%; IC50 [1]: 12.2 ± 3.9 µM; IC50 (HRE–bla ME-180 cells): 9.68 ± 3.79 µM; Emax (HRE–bla ME-180 cells): 43 ± 13%
Cc1nc(Nc2ncc(C(=O)Nc3c(C)cccc3Cl)s2)cc(N2CCN(CCO)CC2)n1 [Dasatinib]	52 ± 11	0.03 ± 0.02	Inactive	Inactive	46 ± 3	56	21.1	–	–	Emax (HIF-1α–NanoLuc; [9]): 82%; IC50 (HIF-1α–NanoLuc; [10]): 0.94 µM; Emax (HIF-1α–NanoLuc; [3]): 46 ± 3%; IC50 (HIF-1α–NanoLuc; [4]): 23.6 ± 8.59 µM
CNC(=O)c1cc(Oc2ccc(NC(=O)Nc3ccc(Cl)c(C(F)(F)F)c3)cc2)ccn1 [Sorafenib]	98 ± 7	17.6 ± 8.6	Inactive	Inactive	100 ± 6	156	–	–	–	IC50 (HIF-1α–NanoLuc; [11]): 13.3 µM; Emax (HIF-1α–NanoLuc; [12]): 156%; Emax (HIF-1α–NanoLuc; [9]): 46%; IC50 (HIF-1α–NanoLuc; [10]): 1.5 µM; Emax (HIF-1α–NanoLuc; [3]): 100 ± 6%; IC50 (HIF-1α–NanoLuc; [4]): 23.6 ± 2.71 µM
N#C/C(=C\c1ccc(-c2cc(Cl)ccc2Cl)o1)C(=O)Nc1cccc2ncccc12 [AGK2]	–	–	–	–	–	–	–	–	–	Pathway inhibitors (validation) HIF-1α–NanoLuc Activity Efficacy (HIF-1α–NanoLuc; Table S2, validation): 107± 9%; IC50 (HIF-1α–NanoLuc; [8]): 19.5 ± 2.49 µM; HIF-1α–NanoLuc confirmatory Efficacy (HIF-1α–NanoLuc; Table S7, confirmatory screen): 107 ± 9%; HRE–bla confirmatory Efficacy [1]: 63 ± 14%; IC50 [1]: 9.47 ± 3.45 µM; IC50 ([2]; Table S7, confirmatory screen): 21.2 ± 3.96 µM; IC50 (HRE–bla ME-180 cells): 10.1 ± 2.97 µM
CCCCC(CC)CNC(=N)NC(=N)NCCCCCCNC(=N)NC(=N)NCC(CC)CCCC (centres unmarked) [Alexidine]	87 ± 18	8.78 ± 1.12	–	–	107 ± 2	126	10.6	8.83 ± 1.59	9.35	IC50 [2, 14]: 18.9 ± 3.53 µM
CC(=O)Oc1ccc(C(c2ccc(OC(C)=O)cc2)c2ccccn2)cc1 [Bisacodyl]	93 ± 4	0.84 ± 0.1	Inactive	–	26 ± 6	110	0.84	0.69 ± 0.05	3.91 ± 0.7	–
CO[C@H]1C[C@@H]2CC[C@@H](C)[C@@](O)(O2)C(=O)C(=O)N2CCCC[C@H]2C(=O)O[C@H]([C@H](C)C[C@@H]2CC[C@@H](OC(=O)C(C)(CO)CO)[C@H](OC)C2)CC(=O)[C@H](C)/C=C(\C)[C@@H](O)[C@@H](OC)C(=O)[C@H](C)C[C@H](C)/C=C/C=C/C=C/1C [Temsirolimus]	86 ± 7	15.9 ± 6.91	Inactive	–	92 ± 8	–	–	27.7 ± 1.87	34.5 ± 2.34	Emax (HRE–bla ME-180 cells; Homo sapiens, ME-180): 116 ± 11%
c1ccc(CCNc2nc(-c3ccccc3)cs2)cc1 [Fanetizole]	–	–	Inactive	Inactive	28 ± 5	123	26.6	–	16.4 ± 3.97	HRE–bla confirmatory IC50 [1]: Inactive
O=C1NCN(c2ccccc2)C12CCN(CCCOc1ccc(F)cc1)CC2 [AMI-193]	–	–	Inactive	–	48 ± 6	57	3.35	25.8 ± 4.4	12.2 ± 0.83	HRE–bla confirmatory IC50 [1]: Inactive
O=C(Nc1ccc(Cl)cc1)Nc1ccc(Cl)c(C(F)(F)F)c1 [Cloflucarban]	98 ± 1	6.8 ± 1.55	Inactive	–	98 ± 4	66	7.5	22.9 ± 3.16	14.3 ± 0.93	–
CC(=O)Oc1ccc(C2(c3ccc(OC(C)=O)cc3)C(=O)Nc3ccccc32)cc1 [Oxyphenisatin acetate]	92 ± 3	0.19 ± 0.01	Inactive	–	55 ± 9	84	1.33	0.2 ± 0.01	2.47 ± 0.79	–
C#Cc1cccc(Nc2ncnc3cc(OCCOC)c(OCCOC)cc23)c1 [Erlotinib]	59 ± 15	7.95 ± 3.47	Inactive	Inactive	35 ± 6	33	–	–	–	IC50 (HIF-1α–NanoLuc; [11]): 2.66 µM; Emax (HIF-1α–NanoLuc; [12]): 33%; Emax (HIF-1α–NanoLuc; [9]): 33%; Emax (HIF-1α–NanoLuc; [3]): 35 ± 6%; IC50 (HIF-1α–NanoLuc; [4]): 6.64 ± 2.42 µM
Nc1nc2nc[nH]c2c(=S)[nH]1 [6-Thioguanine]	88 ± 1	7.83 ± 1	–	Inactive	81 ± 7	81	2.11	–	3.26 ± 0.81	IC50 [2, 14]: 2.3 ± 0.87 µM; Emax ([2]; Homo sapiens, HCT-116, Table S7, confirmatory screen, read-out: Viability (Luc) confirmatory Efficacy): 57 ± 2%
Cn1cnc([N+](=O)[O-])c1Sc1ncnc2nc[nH]c12 [Azathioprine]	–	–	–	Inactive	50 ± 11	67	3.42	–	8.07 ± 1.82	HRE–bla confirmatory IC50 [1]: Inactive; IC50 [2, 14]: 2.11 ± 0.53 µM
COc1cc2ncnc(Nc3ccc(F)c(Cl)c3)c2cc1OCCCN1CCOCC1 [Gefitinib]	45 ± 14	–	Inactive	Inactive	31 ± 3	86	–	–	–	Emax (HIF-1α–NanoLuc; [12]): 86%
CCOc1ccc(Cc2nccc3cc(OCC)c(OCC)cc23)cc1OCC [Ethaverine]	–	–	Inactive	Inactive	96 ± 2	67	6.68	–	9.39 ± 1.08	HRE–bla confirmatory IC50 [1]: Inactive
CC(C)(C)c1nc(-c2cccc(NS(=O)(=O)c3c(F)cccc3F)c2F)c(-c2ccnc(N)n2)s1 [Dabrafenib]	43 ± 1	6.4 ± 1.55	Inactive	Inactive	26 ± 13	–	–	–	–	Emax (HIF-1α–NanoLuc; [3]): 26 ± 13%; IC50 (HIF-1α–NanoLuc; [4]): 0.47 ± 0.24 µM
